Data taken from patent US20130040882A1, “USE OF FIBROBLAST GROWTH FACTOR FRAGMENTS” (NOVARTIS AG, priority 2003, published 2013).

System: uterine gene expression
Experiment: Gene expression profiling (HGU133A) in the uterus of ovariectomized monkeys treated with estradiol, tamoxifen or raloxifene
Format: in vivo, cynomolgus monkeys (Macaca fascicularis)

Compound: O=C(c1ccc(OCCN2CCCCC2)cc1)c1c(-c2ccc(O)cc2)sc2cc(O)ccc12 [raloxifene]
- Uterine expression increase: insulin-like GF binding protein 2 and insulin-like GF 1 (compared with OVX controls): approximately 2 fold
- Effect on transporter, redox, and cell cycle genes in the uterus (relative to estradiol) (cynomolgus monkey, in vivo): little or no effect
- Uterine expression changes: IGFBP 5, latent TGF beta binding protein 1, cysteine-rich angiogenic inducer 61 (cynomolgus monkey, in vivo): only modest changes
- Uterine expression of the remaining signal transduction genes examined (tamoxifen: except for LDL receptor adaptor protein): downregulated
- Fold change relative to OVX: ATPase, H+ transporting, lysosomal 38 kda, V0 subunit d isoform 1 (uterus, OVX monkeys): 1.1 fold
- Fold change relative to OVX: ATPase, Na+/K+ transporting, beta 3 polypeptide (uterus, OVX monkeys): 0.9 fold
- Fold change relative to OVX: Biglycan (uterus, OVX monkeys): 2.4 fold
- Fold change relative to OVX: CDC28 protein kinase regulatory subunit 2 (uterus, OVX monkeys): 0.8 fold
- Fold change relative to OVX: Cadherin 11, type 2, OB-cadherin (osteoblast) (uterus, OVX monkeys): 1.3 fold
- Fold change relative to OVX: Calcium channel, voltage-dependent, beta 2 subunit (uterus, OVX monkeys): 0.8 fold
- Fold change relative to OVX: Catenin (cadherin-associated protein), alpha-like 1 (uterus, OVX monkeys): 0.8 fold
- Fold change relative to OVX: Chitinase 3-like 1 (cartilage glycoprotein-39) (uterus, OVX monkeys): 1.1 fold
- Fold change relative to OVX: Chloride intracellular channel 4 (uterus, OVX monkeys): 1.4 fold
- Fold change relative to OVX: Chondroitin sulfate proteoglycan 2 (versican) (uterus, OVX monkeys): 1.4 fold
- Fold change relative to OVX: Collagen, type I, alpha 1 (uterus, OVX monkeys): 1.8 fold
- Fold change relative to OVX: Collagen, type IV, alpha 2 (uterus, OVX monkeys): 1.4 fold
- Fold change relative to OVX: Collagen, type V, alpha 1 (uterus, OVX monkeys): 1.2 fold
- Fold change relative to OVX: Collagen, type VI, alpha 3 (uterus, OVX monkeys): 1.2 fold
- Fold change relative to OVX: Collagen, type VIII, alpha 2 (uterus, OVX monkeys): 1.9 fold
- Fold change relative to OVX: Cyclin D1 (PRAD1: parathyroid adenomatosis 1) (uterus, OVX monkeys): 1.2 fold
- Fold change relative to OVX: Cysteine-rich, angiogenic inducer, 61 (uterus, OVX monkeys): 1.7 fold
- Fold change relative to OVX: Cytochrome c oxidase subunit via polypeptide 1 (uterus, OVX monkeys): 1.0 fold
- Fold change relative to OVX: Cytochrome c oxidase subunit viia polypeptide 2 (liver) (uterus, OVX monkeys): 1.1 fold
- Fold change relative to OVX: Dermatopontin (uterus, OVX monkeys): 1.5 fold
- Fold change relative to OVX: Dishevelled associated activator of morphogenesis 1 (uterus, OVX monkeys): 0.9 fold
- Fold change relative to OVX: Fibroblast growth factor 2 (basic) (uterus, OVX monkeys): 2.0 fold
- Fold change relative to OVX: Fibulin 1 (uterus, OVX monkeys): 1.4 fold
- Fold change relative to OVX: Four and a half LIM domains 2 (uterus, OVX monkeys): 0.9 fold
- Fold change relative to OVX: G1 to S phase transition 1 (uterus, OVX monkeys): 0.9 fold
- Fold change relative to OVX: Growth associated protein 43 (uterus, OVX monkeys): 1.7 fold
- Fold change relative to OVX: H2A histone family, member Y (uterus, OVX monkeys): 1.0 fold
- Fold change relative to OVX: Heparan sulfate proteoglycan 2 (perlecan) (uterus, OVX monkeys): 1.2 fold
- Fold change relative to OVX: Histone H2A.F/Z variant (uterus, OVX monkeys): 1.0 fold
- Fold change relative to OVX: Insulin-like growth factor binding protein 2, 36 kda (uterus, OVX monkeys): 1.1 fold
- Fold change relative to OVX: Insulin-like growth factor binding protein 5 (uterus, OVX monkeys): 2.0 fold
- Fold change relative to OVX: Integrin, beta 5 (uterus, OVX monkeys): 1.5 fold
- Fold change relative to OVX: Intercrine-alpha, mrna sequence (uterus, OVX monkeys): 1.3 fold
- Fold change relative to OVX: LDL receptor adaptor protein (uterus, OVX monkeys): 1.0 fold
- Fold change relative to OVX: LIM and senescent cell antigen-like domains 1 (uterus, OVX monkeys): 2.2 fold
- Fold change relative to OVX: Laminin, beta 1 (uterus, OVX monkeys): 1.1 fold
- Fold change relative to OVX: Latent transforming growth factor beta binding protein 1 (uterus, OVX monkeys): 1.8 fold
- Fold change relative to OVX: Matrix metalloproteinase 19 (uterus, OVX monkeys): 0.9 fold
- Fold change relative to OVX: Mitogen-activated protein kinase kinase kinase kinase 4 (uterus, OVX monkeys): 0.8 fold
- Fold change relative to OVX: Nidogen (enactin) (uterus, OVX monkeys): 2.4 fold
- Fold change relative to OVX: Osteoglycin (osteoinductive factor, mimecan) (uterus, OVX monkeys): 1.6 fold
- Fold change relative to OVX: Peroxiredoxin 1 (uterus, OVX monkeys): 1.0 fold
- Fold change relative to OVX: Phosphatase and tensin homolog (mutated in multiple advanced cancers 1) (uterus, OVX monkeys): 1.1 fold
- Fold change relative to OVX: Phospholipid transfer protein (uterus, OVX monkeys): 1.2 fold
- Fold change relative to OVX: Pituitary tumour-transforming 1 interacting protein (uterus, OVX monkeys): 1.5 fold
- Fold change relative to OVX: Procollagen C-endopeptidase enhancer (uterus, OVX monkeys): 1.7 fold
- Fold change relative to OVX: Procollagen-proline, 2-oxoglutarate 4-dioxygenase (proline 4-hydroxylase), alpha polypeptide II (uterus, OVX monkeys): 1.2 fold
- Fold change relative to OVX: Progesterone receptor (uterus, OVX monkeys): 1.9 fold
- Fold change relative to OVX: Protein tyrosine kinase 9 (uterus, OVX monkeys): 1.2 fold
- Fold change relative to OVX: SET domain, bifurcated 1 (uterus, OVX monkeys): 1.1 fold
- Fold change relative to OVX: SPARC-like 1 (mast9, hevin) (uterus, OVX monkeys): 1.7 fold
- Fold change relative to OVX: Secreted frizzled-related protein 1 (uterus, OVX monkeys): 1.6 fold
- Fold change relative to OVX: Secreted frizzled-related protein 4 (uterus, OVX monkeys): 0.8 fold
- Fold change relative to OVX: Secreted protein, acidic, cysteine-rich (osteonectin) (uterus, OVX monkeys): 1.7 fold
- Fold change relative to OVX: Serine (or cysteine) proteinase inhibitor, clade H (heat shock protein 47), member 1, (collagen binding protein 1) (uterus, OVX monkeys): 1.4 fold
- Fold change relative to OVX: Solute carrier family 22 (organic cation transporter), member 1-like (uterus, OVX monkeys): 1.0 fold
- Fold change relative to OVX: Solute carrier family 25 (mitochondrial carrier; adenine nucleotide translocator), member 5 (uterus, OVX monkeys): 1.1 fold
- Fold change relative to OVX: Stem cell growth factor; lymphocyte secreted C-type lectin (uterus, OVX monkeys): 1.2 fold
- Fold change relative to OVX: Tenascin C (hexabrachion) (uterus, OVX monkeys): 1.0 fold
- Fold change relative to OVX: Testis Enhanced Gene Transcript (Bax Inhibitor 1) (uterus, OVX monkeys): 1.1 fold
- Fold change relative to OVX: Thioredoxin interacting protein (uterus, OVX monkeys): 1.0 fold
- Fold change relative to OVX: Transforming growth factor, beta-induced, 68 kda (uterus, OVX monkeys): 1.7 fold
- Fold change relative to OVX: Ubiquinol-cytochrome c reductase, Rieske iron-sulfur polypeptide 1 (uterus, OVX monkeys): 1.0 fold
- Fold change relative to OVX: Wingless-type MMTV integration site family, member 2B (uterus, OVX monkeys): 1.4 fold
- Fold change relative to OVX: Wingless-type MMTV integration site family, member 16 (uterus, OVX monkeys): 0.9 fold
- Fold change relative to SHAM control: ATPase, H+ transporting, lysosomal 38 kda, V0 subunit d isoform 1 (uterus, OVX monkeys): 1.0 fold
- Fold change relative to SHAM control: ATPase, Na+/K+ transporting, beta 3 polypeptide (uterus, OVX monkeys): 0.5 fold
- Fold change relative to SHAM control: Biglycan (uterus, OVX monkeys): 0.9 fold
- Fold change relative to SHAM control: CDC28 protein kinase regulatory subunit 2 (uterus, OVX monkeys): 0.5 fold
- Fold change relative to SHAM control: Chitinase 3-like 1 (cartilage glycoprotein-39) (uterus, OVX monkeys): 0.8 fold
- Fold change relative to SHAM control: Chloride intracellular channel 4 (uterus, OVX monkeys): 0.7 fold
- Fold change relative to SHAM control: Chondroitin sulfate proteoglycan 2 (versican) (uterus, OVX monkeys): 1.0 fold
- Fold change relative to SHAM control: Collagen, type I, alpha 1 (uterus, OVX monkeys): 0.7 fold
- Fold change relative to SHAM control: Collagen, type IV, alpha 2 (uterus, OVX monkeys): 0.8 fold
- Fold change relative to SHAM control: Collagen, type V, alpha 1 (uterus, OVX monkeys): 0.6 fold
- Fold change relative to SHAM control: Collagen, type VI, alpha 3 (uterus, OVX monkeys): 0.7 fold
- Fold change relative to SHAM control: Collagen, type VIII, alpha 2 (uterus, OVX monkeys): 1.1 fold
- Fold change relative to SHAM control: Cyclin D1 (PRAD1: parathyroid adenomatosis 1) (uterus, OVX monkeys): 1.3 fold
- Fold change relative to SHAM control: Cysteine-rich, angiogenic inducer, 61 (uterus, OVX monkeys): 0.9 fold
- Fold change relative to SHAM control: Cytochrome c oxidase subunit via polypeptide 1 (uterus, OVX monkeys): 0.8 fold
- Fold change relative to SHAM control: Cytochrome c oxidase subunit viia polypeptide 2 (liver) (uterus, OVX monkeys): 1.1 fold
- Fold change relative to SHAM control: Dermatopontin (uterus, OVX monkeys): 0.8 fold
- Fold change relative to SHAM control: Fibroblast growth factor 2 (basic) (uterus, OVX monkeys): 1.0 fold
